Results as given in ChEMBL document CHEMBL6103569, “Discovery of novel fluorine-containing parthenolide analogues as potential antitumor agents” (Eur J Med Chem, 2025).
Values belong to the compound of their own block, whether it stands above or below them. Active and inactive are the calls of the source. The calls are words filed in the database; no cut-off is given here.

Tests used:
[1] = Induction of apoptosis in human NCI-H820 cells assessed as late apoptotic cells at 5 uM incubated for 48 hrs by Annexin V/FITC staining based flow cytometry analysis (reference value: 0.025%); format: functional
NCI-H820 [2] = experiment: Inhibition of Bcl-2 expression in human NCI-H820 cells incubated for 48 hrs by Western blot analysis; format: functional, cell-based; details: dose <= 5.0 µM
NCI-H820 [3] = experiment: Upregulation of E-cadherin level in human NCI-H820 cells upto 5 uM incubated for 48 hrs by Western blot analysis; format: functional, cell-based
[4] = Induction of apoptosis in human NCI-H820 cells assessed as early apoptotic cells at 5 uM incubated for 48 hrs by Annexin V/FITC staining based flow cytometry analysis (reference value: 0.012%); format: functional
NCI-H820 [5] = experiment: Inhibition of Ki67 expression in human NCI-H820 cells incubated for 48 hrs by Western blot analysis; format: functional, cell-based; details: dose <= 5.0 µM
Huh-7 [6] = experiment: Antiproliferative activity against human Huh-7 cells assessed as inhibition of cell growth incubated for 72 hrs by MTT assay; format: functional, cell-based
PANC-1 [7] = experiment: Antiproliferative activity against human PANC-1 cells assessed as inhibition of cell growth incubated for 72 hrs by MTT assay; format: functional, cell-based
[8] = Induction of apoptosis in human NCI-H820 cells assessed as late apoptotic cells at 2 uM incubated for 48 hrs by Annexin V/FITC staining based flow cytometry analysis (reference value: 0.025%); format: functional
[9] = Antiproliferative activity against human NCI-H820 cells assessed as inhibition of cell growth incubated for 72 hrs by MTT assay; format: functional, cell-based
Huh-7 [10] = experiment: Inhibition of colony formation in human Huh-7 cells incubated for 7 to 10 days by crystal violet staining based analysis; format: functional, cell-based; details: dose 0.2-5 µM, time 7-10 day
[11] = Induction of apoptosis in human NCI-H820 cells assessed as early apoptotic cells at 10 uM incubated for 48 hrs by Annexin V/FITC staining based flow cytometry analysis (reference value: 0.012%); format: functional
[12] = Induction of apoptosis in human NCI-H820 cells assessed as late apoptotic cells at 10 uM incubated for 48 hrs by Annexin V/FITC staining based flow cytometry analysis (reference value: 0.025%); format: functional
NCI-H820 [13] = experiment: Downregulation of STAT3 level in human NCI-H820 cells incubated for 48 hrs by Western blot analysis; format: functional, cell-based; details: dose <= 5.0 µM
[14] = Induction of apoptosis in human NCI-H820 cells assessed as necrotic cells at 5 uM incubated for 48 hrs by Annexin V/FITC staining based flow cytometry analysis (reference value: 0.060%); format: functional
[15] = molecular target: Signal transducer and activator of transcription 3 (Homo sapiens) (UniProt P40763); experiment: Inhibition of STAT3 phosphorylation in human NCI-H820 cells incubated for 48 hrs by Western blot analysis; format: cell-based; details: dose <= 5.0 µM
Chain of Signal transducer and activator of transcription 3 (Homo sapiens) (P40763 whole entry): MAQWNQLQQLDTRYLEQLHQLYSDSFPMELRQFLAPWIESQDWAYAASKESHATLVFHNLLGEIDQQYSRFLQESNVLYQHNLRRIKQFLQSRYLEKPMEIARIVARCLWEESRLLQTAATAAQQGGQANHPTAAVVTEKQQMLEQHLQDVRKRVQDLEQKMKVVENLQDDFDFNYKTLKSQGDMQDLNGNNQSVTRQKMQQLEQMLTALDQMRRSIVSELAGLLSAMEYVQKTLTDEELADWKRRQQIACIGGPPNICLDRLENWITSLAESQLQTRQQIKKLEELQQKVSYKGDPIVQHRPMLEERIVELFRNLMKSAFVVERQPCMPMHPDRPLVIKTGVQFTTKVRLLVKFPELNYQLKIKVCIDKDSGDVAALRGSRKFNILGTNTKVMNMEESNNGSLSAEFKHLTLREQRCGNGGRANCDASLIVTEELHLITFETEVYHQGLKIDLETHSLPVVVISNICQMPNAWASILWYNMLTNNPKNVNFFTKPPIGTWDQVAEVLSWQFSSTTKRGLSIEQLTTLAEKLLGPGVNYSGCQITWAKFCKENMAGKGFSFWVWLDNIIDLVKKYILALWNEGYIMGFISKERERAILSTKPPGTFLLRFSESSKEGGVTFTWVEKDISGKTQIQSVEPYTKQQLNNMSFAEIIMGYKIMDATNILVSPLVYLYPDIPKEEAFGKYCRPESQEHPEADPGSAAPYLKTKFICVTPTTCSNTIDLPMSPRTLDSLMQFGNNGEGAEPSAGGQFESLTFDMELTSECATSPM

[16] = Induction of apoptosis in human NCI-H820 cells assessed as viable cells at 5 uM incubated for 48 hrs by Annexin V/FITC staining based flow cytometry analysis (reference value: 98%); format: functional; details: read-out: Activity
NCI-H820 [17] = experiment: Inhibition of cell migration in human NCI-H820 cells assessed as decrease in migration rate incubated for 48 hrs by wound healing assay; format: functional, cell-based; details: dose <= 5.0 µM
NCI-H820 [18] = experiment: Inhibition of colony formation in human NCI-H820 cells incubated for 7 to 10 days by crystal violet staining based analysis; format: functional, cell-based; details: dose 0.2-5 µM, time 7-10 day
[19] = Induction of apoptosis in human NCI-H820 cells assessed as necrotic cells at 10 uM incubated for 48 hrs by Annexin V/FITC staining based flow cytometry analysis (reference value: 0.060%); format: functional
NCI-H820 [20] = experiment: Downregulation of Vimentin level in human NCI-H820 cells upto 5 uM incubated for 48 hrs by Western blot analysis; format: functional, cell-based
[21] = Induction of apoptosis in human NCI-H820 cells assessed as early apoptotic cells at 2 uM incubated for 48 hrs by Annexin V/FITC staining based flow cytometry analysis (reference value: 0.012%); format: functional
[22] = Induction of apoptosis in human NCI-H820 cells assessed as viable cells at 2 uM incubated for 48 hrs by Annexin V/FITC staining based flow cytometry analysis (reference value: 98%); format: functional; details: read-out: Activity
NCI-H820 [23] = experiment: Inhibition of cell migration in human NCI-H820 cells assessed as decrease in migration rate incubated for 48 hrs by transwell assay; format: functional, cell-based; details: dose <= 5.0 µM
PANC-1 [24] = experiment: Inhibition of colony formation in human PANC-1 cells incubated for 7 to 10 days by crystal violet staining based analysis; format: functional, cell-based; details: dose 0.2-5 µM, time 7-10 day
[25] = Induction of apoptosis in human NCI-H820 cells assessed as necrotic cells at 2 uM incubated for 48 hrs by Annexin V/FITC staining based flow cytometry analysis (reference value: 0.060%); format: functional

SMILES: C=C1C(=O)O[C@H]2[C@H]1CC/C(CC(F)(F)F)=C\CC[C@@]1(C)O[C@@H]21
Activity [1]: 6.54%
inhibition (NCI-H820 [2]): Dose-dependent-effect
Activity (NCI-H820 [3]): Active
Activity [4]: 2.77%
inhibition (NCI-H820 [5]): Dose-dependent-effect
IC50 (Huh-7 [6]; Homo sapiens, Huh-7, 72 h): 2.36 µM
IC50 (PANC-1 [7]; Homo sapiens, PANC-1, 72 h): 2.16 µM
Activity [8]: 0.51%
IC50 ([9]; Homo sapiens, NCI-H820, 72 h): 2.66 µM
inhibition (Huh-7 [10]): Active
Activity [11]: 0.06%
Activity [12]: 5.24%
Activity (NCI-H820 [13]): Dose-dependent-effect
Activity [14]: 2.07%
inhibition [15]: Dose-dependent-effect
viability at 5 µM [16]: 86.8%
inhibition (NCI-H820 [17]): Dose-dependent-effect
inhibition (NCI-H820 [18]): Active
Activity [19]: 0.55%
Activity (NCI-H820 [20]): Active
Activity [21]: 0.14%
viability at 2 µM [22]: 64%
inhibition (NCI-H820 [23]): Dose-dependent-effect
inhibition (PANC-1 [24]): Active
Activity [25]: 1.4%

SMILES: C=C1C(=O)O[C@H]2[C@H]1CC/C(CSC#N)=C\CC[C@@]1(C)O[C@@H]21
IC50 (Huh-7 [6]; Homo sapiens, Huh-7, 72 h): 1.5 µM
IC50 (PANC-1 [7]; Homo sapiens, PANC-1, 72 h): 1.35 µM
IC50 ([9]; Homo sapiens, NCI-H820, 72 h): 2.04 µM

SMILES: CN(C)CC1C(=O)O[C@H]2[C@H]1CC/C(CC(F)(F)F)=C\CC[C@@]1(C)O[C@@H]21 (stereo not given in full)
IC50 (Huh-7 [6]; Homo sapiens, Huh-7, 72 h): 2.64 µM
IC50 (PANC-1 [7]; Homo sapiens, PANC-1, 72 h): 3.8 µM
IC50 ([9]; Homo sapiens, NCI-H820, 72 h): 3.86 µM

SMILES: CCCN(C)CC1C(=O)O[C@H]2[C@H]1CC/C(CC(F)(F)F)=C\CC[C@@]1(C)O[C@@H]21 (stereo not given in full)
IC50 (Huh-7 [6]; Homo sapiens, Huh-7, 72 h): 3.13 µM
IC50 (PANC-1 [7]; Homo sapiens, PANC-1, 72 h): 3.62 µM
IC50 ([9]; Homo sapiens, NCI-H820, 72 h): 5.52 µM

SMILES: C=C1C(=O)O[C@H]2[C@H]1CC/C(COC(F)F)=C\CC[C@@]1(C)O[C@@H]21
IC50 (Huh-7 [6]; Homo sapiens, Huh-7, 72 h): 3.18 µM
IC50 (PANC-1 [7]; Homo sapiens, PANC-1, 72 h): 3.31 µM
IC50 ([9]; Homo sapiens, NCI-H820, 72 h): 4.32 µM

More lines, main results first:

IC50 (Huh-7 [6]; Homo sapiens, Huh-7, 72 h): 3.29 µM
IC50 (PANC-1 [7]; Homo sapiens, PANC-1, 72 h): 3.66 µM
SMILES: C[C@@]12CC/C=C(/CC(F)(F)F)CC[C@H]3C(CN4CCC[C@@H]4CO)C(=O)O[C@@H]3[C@@H]1O2 (stereo not given in full)
IC50 ([9]; Homo sapiens, NCI-H820, 72 h): 3.11 µM

IC50 (Huh-7 [6]; huh-7): 2.38 µM
IC50 (PANC-1 [7]; panc-1): 5.43 µM
SMILES: C[C@@]12CC/C=C(/CC(F)(F)F)CC[C@H]3C(CN4CCC(O)CC4)C(=O)O[C@@H]3[C@@H]1O2 (stereo not given in full)
IC50 ([9]; nci-h820): 4.88 µM

IC50 (Huh-7 [6]; huh-7): 3.1 µM
IC50 (PANC-1 [7]; panc-1): 3.23 µM
SMILES: C[C@@]12CC/C=C(/CC(F)(F)F)CC[C@H]3C(CN4CC[C@@H](O)C4)C(=O)O[C@@H]3[C@@H]1O2 (stereo not given in full) [listing 1 of 2 here]
IC50 ([9]; nci-h820): 3.95 µM

IC50 (Huh-7 [6]; Homo sapiens, Huh-7, 72 h): 3.34 µM
IC50 (PANC-1 [7]; Homo sapiens, PANC-1, 72 h): 4.88 µM
SMILES: C[C@@]12CC/C=C(/CC(F)(F)F)CC[C@H]3C(CN4CC[C@@H](O)C4)C(=O)O[C@@H]3[C@@H]1O2 (stereo not given in full) [listing 2 of 2 here]
IC50 ([9]; Homo sapiens, NCI-H820, 72 h): 4.62 µM

IC50 (Huh-7 [6]; huh-7): 4.1 µM
IC50 (PANC-1 [7]; panc-1): 5.19 µM
SMILES: C[C@@]12CC/C=C(/CC(F)(F)F)CC[C@H]3C(CN4CCCC4)C(=O)O[C@@H]3[C@@H]1O2 (stereo not given in full) [listing 1 of 2 here]
IC50 ([9]; nci-h820): 6.44 µM

IC50 (Huh-7 [6]; Homo sapiens, Huh-7, 72 h): 3.57 µM
IC50 (PANC-1 [7]; Homo sapiens, PANC-1, 72 h): 5.68 µM
SMILES: C[C@@]12CC/C=C(/CC(F)(F)F)CC[C@H]3C(CN4CCCC4)C(=O)O[C@@H]3[C@@H]1O2 (stereo not given in full) [listing 2 of 2 here]
IC50 ([9]; Homo sapiens, NCI-H820, 72 h): 6.65 µM
